From ChEMBL document CHEMBL3044655, “QSAR studies of 7-methyljuglone derivatives as antitubercular agents” (Med Chem Res, 2012)
pIC50: −log10 of the molar value.

Test system: Mycobacterium tuberculosis
Assay: Antitubercular activity against Mycobacterium tuberculosis H37Rv by BACTEC method
Assay type: functional, organism-based
Settings: for pIC50: read-out: IC50; for IC50: read-out: pIC50 (converted)

Row | SMILES | pIC50 | IC50 [nM]
1 | CC(=O)Oc1cc(OC(C)=O)c2c(OC(C)=O)c(C)c(C)c(Cl)c2c1OC(C)=O | 8.11 | 7.7
2 | COc1c(OC)c(OC(C)=O)c2c(OC(C)=O)cc(OC(C)=O)c(OC(C)=O)c2c1F | 8.41 | 3.86
3 | CC(=O)Oc1cc(OC(C)=O)c2c(OC(C)=O)ccc(F)c2c1OC(C)=O | 8.10 | 7.97
4 | CC(=O)Oc1cc(OC(C)=O)c2c(OC(C)=O)ccc(Cl)c2c1OC(C)=O | 7.91 | 12.2
5 | CC(=O)Oc1cc(OC(C)=O)c2c(OC(C)=O)c(C)c(C)c(F)c2c1OC(C)=O | 8.48 | 3.34
6 | Cc1ccc2c(c1O)C(=O)C=CC2=O | 8.51 | 3.1
7 | CC(=O)Oc1cc(C)cc2c1C(=O)C=CC2=O | 8.22 | 6
8 | CC(=O)Oc1cc(C)c(Cl)c2c1C(=O)C=CC2=O | 8.20 | 6.3
9 | COc1cc(C)cc2c1C(=O)C=CC2=O | 8.24 | 5.8
10 | CC(=O)Oc1cc(OC(C)=O)c2c(OC(C)=O)c(C)cc(Cl)c2c1OC(C)=O | 6.83 | 149
11 | COc1cc(C)c(Cl)c2c1C(=O)C=CC2=O | 8.11 | 7.7
12 | CCOc1c(C)cc(Cl)c2c1C(=O)C=CC2=O | 7.90 | 12.5
13 | CCOc1cc(C)cc2c1C(=O)C=CC2=O | 8.20 | 6.3
14 | CCOc1cc(C)c(Cl)c2c1C(=O)C=CC2=O | 7.44 | 36.1
15 | CC(=O)Oc1cc(OC(C)=O)c2c(OC(C)=O)cc(C)cc2c1OC(C)=O | 7.76 | 17.2
16 | COc1c(C)cc(Cl)c2c1C(=O)C=CC2=O | 8.10 | 8
17 | CC(=O)Oc1cc(OC(C)=O)c2c(OC(C)=O)cc(C)c(Cl)c2c1OC(C)=O | 7.56 | 27.8
18 | CC(=O)Oc1c(C)cc(Cl)c2c1C(=O)C=CC2=O | 7.68 | 21.1
19 | Cc1cc(O)c2c(c1)C(=O)C(O)=CC2=O | 8.51 | 3.1
20 | Cc1cc(O)c2c(c1Br)C(=O)C=CC2=O [5-BROMO-8-HYDROXY-6-METHYLNAPHTHALENE-1,4-DIONE] | 8.44 | 3.6
21 | Cc1cc(O)c2c(c1Cl)C(=O)C=CC2=O [5-CHLORO-8-HYDROXY-6-METHYLNAPHTHALENE-1,4-DIONE] | 8.60 | 2.5
22 | Cc1cc(O)c2c(c1F)C(=O)C=CC2=O [5-FLUORO-8-HYDROXY-6-METHYLNAPHTHALENE-1,4-DIONE] | 8.12 | 7.6
23 | Cc1cc(Cl)c2c(c1O)C(=O)C=CC2=O [8-CHLORO-5-HYDROXY-6-METHYLNAPHTHALENE-1,4-DIONE] | 8.34 | 4.6
24 | O=C1C=CC(=O)c2c(O)cccc21 [JUGLONE] | 8.92 | 1.2
25 | Cc1cc(O)c2c(c1)C(=O)C=CC2=O [RAMENTACEONE] | 7.82 | 15.1
